The structures appear in SMILES notation. Like-named read-outs stand apart in the source and are kept apart here. *1 amine or outer side, *2 acyl side, *3 side chain or, on linkers, in order; H or OH if unused. Where a SMILES comes first, the peptide text is derived from it. Bridges are numbered along the chain shown (N, C = ends). Roman numbers before positions name the chains, in order. [ ]: non-standard residue; d: D form. TATA = O=C(CC[*:1])N1CN(C(=O)CC[*:2])CN(C(=O)CC[*:3])C1; X1 = O=C(CCc1cn(CCOCCOCCOCCOCCOCCC(=O)[*:2])nn1)[*:1]; X2 = O=C(CCOCCOCCOCCOCCOCCn1cc(CCC(=O)[*:2])nn1)[*:1]; Dip = N[C@H](C(=O)O)C(c1ccccc1)c1ccccc1; Hyp = O=C(O)[C@@H]1C[C@@H](O)CN1; hArg = N=C(N)NCCCC[C@H](N)C(=O)O; tBuAla = CC(C)(C)C[C@H](N)C(=O)O; Cba = N[C@@H](CC1CCC1)C(=O)O; Nle = CCCC[C@H](N)C(=O)O

We go through four compounds from patent US11332500B2, “Heterotandem bicyclic peptide complexes” (BicycleTx Limited, priority 2019, dated 2022).

Data set [1] can be described thus: Pharmacokinetics of CD137 heterotandem bicyclic peptide complexes in SD rats. To be noted: rat, in vivo, male SD rats, IV Inf, plasma; for clearance: read-out: Clp; for half-life: read-out: T½ (converted); for Vd: read-out: Vdss. As for the experimental part:
Male SD Rats were dosed with 2 mg/kg of each heterotandem Bicycle peptide complex formulated in 25 mM Histidine HCl, 10% sucrose pH 7. Serial bleeding (about 80 μL blood/time point) was performed via submadibular or saphenous vein at each time point. All blood samples were immediately transferred into prechilled microcentrifuge tubes containing 2 μL K2-EDTA (0.5M) as anti-coagulant and placed on wet ice. Blood samples were immediately processed for plasma by centrifugation at approximately 4° C., 3000 g. The precipitant including internal standard was immediately added into the plasma, mixed well and centrifuged at 12,000 rpm, 4° C. for 10 minutes. The supernatant was transferred into pre-labeled polypropylene microcentrifuge tubes, and then quick-frozen over dry ice. The samples were stored at […] or below as needed until analysis. 7.5 μL of the supernatant samples were directly injected for LC-MS/MS analysis using an Orbitrap Q Exactive in positive ion mode to determine the concentrations of Bicycle. Plasma concentration versus time data were analyzed by non-compartmental approaches using the Phoenix WinNonlin 6.3 software program. C0, Cl, Vdss, T½, AUC(0-last), AUC(0-inf), MRT(0-last), MRT(0-inf) and graphs of plasma concentration versus time profile were reported.

In the next data set the target is T1, CD137 (Homo sapiens, UniProt Q07011).
T1 construct: host or cells: Jurkat reporter cells from the Promega kit, co-cultured with tumour cells (NCI-H292, PC3 or RKO)
T1 sequence (Q07011 24-255): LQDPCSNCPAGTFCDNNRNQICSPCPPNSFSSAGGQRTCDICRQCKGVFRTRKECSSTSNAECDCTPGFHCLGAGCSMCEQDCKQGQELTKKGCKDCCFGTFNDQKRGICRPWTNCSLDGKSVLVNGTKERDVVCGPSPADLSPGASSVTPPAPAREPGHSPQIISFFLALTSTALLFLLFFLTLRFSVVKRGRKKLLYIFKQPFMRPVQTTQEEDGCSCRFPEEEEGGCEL
Put plainly: CD137 reporter assay co-culture with RKO tumour cells (PD-L1/CD137 heterotandems). Type of data set: cell-based. To be noted: Jurkat CD137 reporter cells co-cultured with RKO (PD-L1), 6 h; read-out: Fold Induction over background. On the procedure:
Culture medium, referred to as R1 media, is prepared by adding 1% FBS to RPMI-1640 (component of Promega kit CS196005). Serial dilutions of test articles in R1 are prepared in a sterile 96 well-plate. Add 25 μL per well of test articles or R1 (as a background control) to designated wells in a white cell culture plate. Tumour cells* are harvested and resuspended at a concentration of 400,000 cells/mL in R1 media. Twenty five (25) μL/well of tumour cells are added to the white cell culture plate. Jurkat cells (Promega kit CS196005, 0.5 mL) are thawed in the water bath and then added to 5 ml pre-warmed R1 media. Twenty five (25) μL/well of Jurkat cells are then added to the white cell culture plate. Incubate the cells and test articles for 6 h at 37° C., 5% CO2. At the end of 6 h, add 75 μL/well Bio-Glo™ reagent (Promega) and incubate for 10 min before reading luminescence in a plate reader (Clariostar, BMG). The fold change relative to cells alone (Jurkat cells+Cell line used in co-culture) is calculated and plotted in GraphPad Prism as log(agonist) vs response to determine EC50 (nM) and Fold Induction over background (Max).
The tumour cell type used in co-culture for EphA2 is PC3. The tumour cell type used in co-culture for PD-L1 is RKO.
A summary of the fold induction induced by PD-L1/CD137 heterotandem peptides in the CD137 reporter coculture assay with RKO cells is shown in Table 3.
On the technique in general: A reporter such as luciferase makes a cellular process visible.

`CCCC[C@@H]1NC(=O)[C@H](Cc2ccc(O)cc2)NC(=O)[C@@H]2CCCN2C(=O)[C@H](CC(=O)O)NC(=O)[C@H](C)NC(=O)[C@H](Cc2ccccc2)NC(=O)[C@@H]2CSCCC(=O)N3CN(CN(C3)C(=O)CCSC[C@@H](C(=O)N[C@@H](C)C(N)=O)NC1=O)C(=O)CCSC[C@H](NC(C)=O)C(=O)N[C@@H](CC(C)(C)C)C(=O)N1CCC[C@H]1C(=O)N[C@@H](CCC(=O)O)C(=O)N[C@H](CCCCNC(=O)CCc1cn(CCOCCOCCOCCOCCOCCC(=O)N[C@H]3CSCCC(=O)N4CN5CN(C4)C(=O)CCSC[C@H](NC(=O)[C@H](CC(C)C)NC(=O)[C@@H]4CCCN4C(=O)[C@H](CC(N)=O)NC(=O)[C@H](C(C)C)NC(=O)[C@H](CC(C)C)NC(=O)[C@@H]4C[C@@H](O)CN4C3=O)C(=O)N[C@@H](CC(C)C)C(=O)N[C@@H](C(c3ccccc3)c3ccccc3)C(=O)N3CCC[C@H]3C(=O)N[C@H](CC(=O)O)C(=O)N[C@@H](Cc3c[nH]c4ccccc34)C(=O)N[C@@H]([C@@H](C)O)C(=O)N[C@H](C(N)=O)CSCCC5=O)nn1)C(=O)N1CCC[C@H]1C(=O)N[C@@H](Cc1ccc(O)cc1)C(=O)N2` [BCY13035] (I: Ac-C[tBuAla]PE[dK]PYCFADPY[Nle]CA-NH2 / II: C[Hyp]LVNPLCL[Dip]P[dD]WTC-NH2; linker I:1-I:8-I:15, II:1-II:8-II:15 via TATA; linker I:5-II:N via X1): in data set [1] (3.0 mg/kg), the clearance turned out to be 11 mL/min/kg, the half-life is 1.5 h and the Vd is 0.63 L/kg.
As to `CCCC[C@@H]1NC(=O)[C@H](Cc2ccc(O)cc2)NC(=O)[C@@H]2CCCN2C(=O)[C@H](CC(=O)O)NC(=O)[C@H](C)NC(=O)[C@H](Cc2ccccc2)NC(=O)[C@@H]2CSCCC(=O)N3CN(CN(C3)C(=O)CCSC[C@@H](C(=O)N[C@@H](C)C(N)=O)NC1=O)C(=O)CCSC[C@H](NC(C)=O)C(=O)N[C@@H](CC(C)(C)C)C(=O)N1CCC[C@H]1C(=O)N[C@@H](CCC(=O)O)C(=O)N[C@H](CCCCNC(=O)CCc1cn(CCOCCOCCOCCOCCOCCC(=O)N[C@H]3CSCCC(=O)N4CN5CN(C4)C(=O)CCSC[C@@H](C(=O)N[C@H](C)C(N)=O)NC(=O)[C@H]([C@@H](C)O)NC(=O)[C@H](Cc4c[nH]c6ccccc46)NC(=O)[C@@H](CC(=O)O)NC(=O)[C@@H]4CCCN4C(=O)[C@H](C(c4ccccc4)c4ccccc4)NC(=O)[C@H](CC(C)C)NC(=O)[C@H](CSCCC5=O)NC(=O)[C@H](CC(C)C)NC(=O)[C@@H]4CCCN4C(=O)[C@H](CC(N)=O)NC(=O)[C@H](C(C)C)NC(=O)[C@H](CC4CCC4)NC(=O)[C@@H]4C[C@@H](O)CN4C3=O)nn1)C(=O)N1CCC[C@H]1C(=O)N[C@@H](Cc1ccc(O)cc1)C(=O)N2` [BCY13040] (I: C[Hyp][Cba]VNPLCL[Dip]P[dD]WTC[dA]-NH2 / II: Ac-C[tBuAla]PE[dK]PYCFADPY[Nle]CA-NH2; linker I:1-I:8-I:15, II:1-II:8-II:15 via TATA; linker I:N-II:5 via X2), in data set [1] (3.0 mg/kg), the clearance is 10 mL/min/kg, the half-life is 1.6 h and the Vd came out at 0.63 L/kg.
For the compound `CCCC[C@@H]1NC(=O)[C@H](Cc2ccc(O)cc2)NC(=O)[C@@H]2CCCN2C(=O)[C@H](CC(=O)O)NC(=O)[C@H](C)NC(=O)[C@H](Cc2ccccc2)NC(=O)[C@@H]2CSCCC(=O)N3CN(CN(C3)C(=O)CCSC[C@@H](C(=O)N[C@@H](C)C(N)=O)NC1=O)C(=O)CCSC[C@H](NC(C)=O)C(=O)N[C@@H](CC(C)(C)C)C(=O)N1CCC[C@H]1C(=O)N[C@@H](CCC(=O)O)C(=O)N[C@H](CCCCNC(=O)CCOCCOCCOCCOCCOCCn1cc(CCC(=O)NCCCC[C@H](NC(=O)[C@@H]3CSCCC(=O)N4CN5CN(C4)C(=O)CCSC[C@H](NC(=O)[C@H](CC(=O)O)NC(=O)[C@H](CCCCNC(=N)N)NC(=O)[C@H](C)NC(C)=O)C(=O)N4C[C@H](O)C[C@H]4C(=O)N[C@@H](CC(C)C)C(=O)N[C@@H](C(C)C)C(=O)N[C@@H](CC(N)=O)C(=O)N4CCC[C@H]4C(=O)N[C@@H](CC(C)C)C(=O)N[C@@H](CSCCC5=O)C(=O)N[C@@H](CC(C)C)C(=O)N[C@@H](Cc4c[nH]cn4)C(=O)N4CCC[C@H]4C(=O)N[C@H](CC(=O)O)C(=O)N[C@@H](Cc4c[nH]c5ccccc45)C(=O)N[C@@H](CCCCNC(=N)N)C(=O)N3)C(N)=O)nn1)C(=O)N1CCC[C@H]1C(=O)N[C@@H](Cc1ccc(O)cc1)C(=O)N2` [BCY12234] (I: Ac-A[hArg]DC[Hyp]LVNPLCLHP[dD]W[hArg]CK-NH2 / II: Ac-C[tBuAla]PE[dK]PYCFADPY[Nle]CA-NH2; linker I:4-I:11-I:18, II:1-II:8-II:15 via TATA; linker I:19-II:5 via X1), in data set [1] (2.0 mg/kg), the clearance was 26 mL/min/kg, the half-life is 0.42 h and the Vd came out at 0.95 L/kg.
`CCCC[C@@H]1NC(=O)[C@H](Cc2ccc(O)cc2)NC(=O)[C@@H]2CCCN2C(=O)[C@H](CC(=O)O)NC(=O)[C@H](C)NC(=O)[C@H](Cc2ccccc2)NC(=O)[C@@H]2CSCCC(=O)N3CN(CN(C3)C(=O)CCSC[C@@H](C(=O)N[C@@H](C)C(N)=O)NC1=O)C(=O)CCSC[C@H](NC(C)=O)C(=O)N[C@@H](CC(C)(C)C)C(=O)N1CCC[C@H]1C(=O)N[C@@H](CCC(=O)O)C(=O)N[C@H](CCCCNC(=O)CCc1cn(CCOCCOCCOCCOCCOCCC(=O)NCCCC[C@@H]3NC(=O)[C@H](CO)NC(=O)[C@@H](NC(=O)[C@H](CCCCNC(=N)N)NC(=O)[C@H](CC(=O)O)NC(C)=O)CSCCC(=O)N4CN5CN(C4)C(=O)CCSC[C@@H](C(=O)N4CCC[C@H]4C(=O)N[C@@H](CO)C(=O)N[C@@H](Cc4c[nH]cn4)C(N)=O)NC(=O)[C@H](CC(C)C)NC(=O)[C@H](Cc4c[nH]cn4)NC(=O)[C@H](CC(C)C)NC(=O)[C@H](CCCCNC(C)=O)NC(=O)[C@H](CCC(N)=O)NC(=O)[C@H](CSCCC5=O)NC(=O)[C@H](CCSC)NC(=O)[C@H]([C@@H](C)O)NC(=O)[C@H](CC(C)C)NC(=O)[C@H](Cc4c[nH]c5ccccc45)NC(=O)CNC3=O)nn1)C(=O)N1CCC[C@H]1C(=O)N[C@@H](Cc1ccc(O)cc1)C(=O)N2` [BCY12230] (I: Ac-D[hArg]CSKGWLTMCQK(Ac)LHLCPSH-NH2 / II: Ac-C[tBuAla]PE[dK]PYCFADPY[Nle]CA-NH2; linker I:3-I:11-I:17, II:1-II:8-II:15 via TATA; linker I:5-II:5 via X2): the fold induction at CD137 came out at 10.
